From patent US11638737B2, “Food compositions and pharmaceutical compositions containing Filipendula glaberrima extract for lowering blood cholesterol levels and for ameliorating atherosclerosis” (KOREA INSTITUTE OF SCIENCE AND TECHNOLOGY, priority 2019, dated 2023)
≈ marks a conversion by molar mass, not a printed value.

How the values were obtained:
HMG-CoA reductase = molecular target: T1, HMG-CoA reductase (Homo sapiens, UniProt P04035); test: HMG-CoA reductase inhibitory effect (modified Perchellet's assay, absorbance at 340 nm); assay type: biochemical; settings: mean ± standard error; values without (μM) mark
T1 construct: purchased Sigma-Aldrich (St. Louis, Mo.)
T1 sequence (P04035 426-888 limits assumed): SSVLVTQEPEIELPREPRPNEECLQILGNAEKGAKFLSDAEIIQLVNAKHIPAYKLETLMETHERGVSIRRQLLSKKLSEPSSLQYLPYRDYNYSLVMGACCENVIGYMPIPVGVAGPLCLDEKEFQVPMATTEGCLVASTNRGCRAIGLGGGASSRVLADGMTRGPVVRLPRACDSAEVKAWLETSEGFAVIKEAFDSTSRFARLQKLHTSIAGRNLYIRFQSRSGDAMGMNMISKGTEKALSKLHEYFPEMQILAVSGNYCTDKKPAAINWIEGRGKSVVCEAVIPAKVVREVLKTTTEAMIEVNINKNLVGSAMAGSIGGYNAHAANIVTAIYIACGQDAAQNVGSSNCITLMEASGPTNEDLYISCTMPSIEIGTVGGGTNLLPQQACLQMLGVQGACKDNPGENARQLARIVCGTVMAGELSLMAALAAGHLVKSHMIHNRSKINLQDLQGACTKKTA
Description: Transparent 96-well plates were purchased from SPL Lifesciences (Pocheon). A VERSA Max™ microplate reader from Molecular Devices was used.
The sample for detection was dissolved in DMSO before use.
The activity of HMG-CoA reductase was compared and analyzed by recording the absorbance at 340 nm at 37° C. for 10 minutes using a VERSA Max™ microplate reader. […] The experiment was repeated three times.

[1] = test system: lipid peroxide formation in liver homogenate; test: Lipid peroxide production inhibitory effect (LPO) in rat liver homogenate; assay type: biochemical, Sprague-Dawley rats; settings: for IC50: samples marked (μM)
Description: The lipid peroxide production inhibitory effect (LPO) of the extract and the isolated compounds were tested. Lipid peroxide is a substance produced by peroxidation of lipids through various oxidation reactions. Reactive oxygen species, free radicals and the like oxidize phospholipids of cell membranes containing great amounts of unsaturated fatty acids, producing lipid peroxides in the cell membranes. When the lipid peroxides are accumulated in the cell membranes, the fluidity and functionality of the cell membrane are deteriorated, resulting in local disorders in tissues such as inhibition of cell functions and changes in cell structures.
Therefore, the effects of inhibiting lipid peroxide production by the Filipendula glaberrima leaf and stem extracts and the isolated compounds were measured as follows. The animals used in the experiment were male Sprague-Dawley rats, and only water was supplied for 24 hours before the experiment. […] The experimental animals were subjected to respiratory anesthesia with isoflurane, and dissected and a 0.15 M ice-cold KCl solution was perfused through the liver portal vein to remove blood from the liver and extract the liver. […] 50 mM Tris-HCl buffer (pH 7.5) was added to 300 μl of a liver homogenate (11 mg protein/ml), 10 μM FeSO4, 10 μl of a test drug and 0.4 mM ascorbic acid to adjust the total volume to 1 ml, and then the resulting mixture was incubated at 37° C. for 30 minutes.

[2] = DPPH radical scavenging effect; settings: samples marked (μM); read-out: SC50 DPPH radical
Excerpt: Data are expressed as an average of measurements conducted in triplicate.

[3] = Xanthine/xanthine oxidase-induced superoxide anion scavenging effect; assay type: biochemical; settings: samples marked (μM); read-out: SC50 Superoxide anion radical (O2−)
Description: Specifically, 0.1 mM xanthine, 0.1 mM EDTA, 50 μg/ml of bovine serum albumin (BSA), […] nitroblue tetrazolium (NBT), a 40 mM Na2CO3 solution, a test sample solution diluted at each concentration and a solution with a final volume of 200 μl containing 1.4×10^−3 unit XOD were mixed and reacted at 25° C. for 20 minutes.

Compound	IC50 (HMG-CoA reductase) [µM]	IC50 [1] [µM]	IC50 [2] [µM]	IC50 [3] [µM]	IC50 LPO ([1]; rat liver homogenate, FeSO4/ascorbic acid, TBA, 535 nm) [µg/mL]
C[C@@H]1CC[C@]2(C(=O)O[C@@H]3OC(COC(=O)c4cc(O)c(O)c(O)c4)[C@@H](O)[C@H](O)C3O)CC[C@]3(C)C(=CC[C@@H]4[C@@]5(C)C[C@@H](O)[C@H](O)C(C)(C)[C@@H]5CC[C@]43C)[C@@H]2[C@]1(C)O (some centres unmarked) [Compound 1]	175 ± 2.2	89 ± 3.69	47.88 ± 0.01	–	–
COC(=O)c1cc(O)c(O)c(O)c1Oc1cc2c(c(O)c1O)-c1c(cc(O)c(O)c1O)C(=O)O[C@@H]1C(COC2=O)OC(O)C(OC(=O)c2cc(O)c(O)c(O)c2)C1OC(=O)c1cc(O)c(O)c(O)c1 (some centres unmarked) [Compound 2]	1.46 ± 0.22	7.99 ± 0.05	3.62 ± 0.57	41.1 ± 2.24	–
O=c1c(O)c(-c2ccc(O)c(O)c2)oc2cc(O)cc(O)c12 [Quercetin]	–	29.6 ± 1.32	19 ± 2.25	> 50	29.57 ± 1.32 (≈ 97.8 µM)
Oc1ccc(C=Cc2cc(O)cc(O)c2)cc1 [Resveratrol]	–	35.64 ± 0.01	–	–	–
Cc1c(C)c2c(c(C)c1O)CCC(C)(C(=O)O)O2 (centres unmarked) [Trolox]	–	> 50	47.5 ± 0.41	> 50	–
O=C1O[C@H]([C@@H](O)CO)C(O)=C1O [Vit. C, ascorbic acid]	–	–	29.3 ± 2.49	> 50	–
